Bridge positions count the residues as written; N and C are the ends. Square brackets hold non-standard residues; d marks the D form. Peptide text beside a SMILES is read from it. Orn = NCCC[C@H](N)C(=O)O; Mpa = O=C(O)CCS

T1 sequence (P37288 whole entry): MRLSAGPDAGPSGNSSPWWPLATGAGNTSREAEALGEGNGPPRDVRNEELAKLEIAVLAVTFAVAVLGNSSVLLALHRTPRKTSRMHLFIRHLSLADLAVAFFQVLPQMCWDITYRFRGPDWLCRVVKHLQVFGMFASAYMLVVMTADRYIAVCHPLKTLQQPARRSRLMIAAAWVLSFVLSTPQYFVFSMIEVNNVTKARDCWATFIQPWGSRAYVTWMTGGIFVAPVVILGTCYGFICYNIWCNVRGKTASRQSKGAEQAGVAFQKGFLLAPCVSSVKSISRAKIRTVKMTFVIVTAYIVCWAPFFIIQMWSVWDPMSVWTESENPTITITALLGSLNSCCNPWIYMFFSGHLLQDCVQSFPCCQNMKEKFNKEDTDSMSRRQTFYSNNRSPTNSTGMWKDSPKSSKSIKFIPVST

Tested on in one data set: not given
Experiment: not given
Details: not given
The melting point is the temperature, or range, at which the solid turns liquid. For the molecule `CC(C)(C)OC(=O)C(C(=O)Cc1cccc(C(F)(F)F)c1)N1C(=O)C(N2C(=O)OCC2c2ccccc2)C1C=Cc1ccccc1` (mixture of isomers) [Example 50, tert-Butyl 2(R,S)-[3-(trifluoro)phenylacetyl]-2-[3(S)-(4(S)-phenyloxazolidin-2-on-3-yl)-4(R)-(2-styryl)-azetidin-2-on-1-yl]acetate], the melting point was 158 to 160 °C.

For the molecule `CC(C)(C)C[C@@H](C(=O)OCc1ccccc1)N1C(=O)[C@H](N2C(=O)OC[C@H]2c2ccccc2)[C@@H]1C=Cc1ccco1` [Example 27, Benzyl 2(S)-(2,2-dimethyl)propyl-2-[3(R)-(4(R)-phenyloxazolidin-2-on-3-yl)-4(S)-(1-(fur-2-yl)-ethylen-2-yl)-azetidin-2-on-1-yl]acetate], the melting point worked out at 180 °C.

Take `CC(C)C[C@@H](C(=O)OCc1ccccc1)N1C(=O)[C@@H](N2C(=O)OC[C@@H]2c2ccccc2)[C@H]1CCc1ccccc1` [Example 28, Benzyl 2-(S)-isobutyl-2-[3(S)-(4(S)-phenyloxazolidin-2-on-3-yl)-4(R)-(2-(phenyl)-ethyl)-azetidin-2-on-1-yl]acetate]: the melting point is 138 to 140 °C.

On to `CC1(C(C(=O)NCc2ccccc2)N2C(=O)C(N3C(=O)OCC3c3ccccc3)C2C=Cc2ccccc2)OCCO1` [Example 30, N-[Benzyl]-2-[(1,1-ethyleneketal)acetyl]-2-[3(S)-(4(S)-phenyloxazolidin-2-on-3-yl)-4(R)-(2-styryl)-azetidin-2-on-1-yl)acetamide], for which the melting point was 150 to 152 °C.

A further data set deals with preterm contractions.
Experiment: not given
The conditions noted are these: studied clinically (Goodwin, et al., 1994); cited from earlier work.
Turning to `CCOc1ccc(C[C@H]2NC(=O)CCSSC[C@@H](C(=O)N3CCC[C@H]3C(=O)N[C@@H](CCCN)C(=O)NCC(N)=O)NC(=O)[C@H](CC(N)=O)NC(=O)[C@H]([C@@H](C)O)NC(=O)[C@H]([C@@H](C)CC)NC2=O)cc1` [atosiban] ([Mpa][dY](Et)ITNCP[Orn]G-NH2; disulfide 1-6), the “inhibition of preterm contractions versus placebo” value was “more significant inhibition of preterm contractions than did placebo”.

The next data set has as its target T1, human vasopressin V1a receptor (Homo sapiens, UniProt P37288).
T1 construct: expressed in transfected cells; host or cells: CHO (hV1a cell line), membrane preparation
The experiment in a line: human vasopressin V1a receptor binding, [3H]PMP-AVP, hV1a (CHO) cell membranes. The conditions noted are these: [3H]PMP-AVP 0.2 nM, read-out: BINDING AFFINITY (IC50 (nM)). As to the method:
The human vasopressin V1a receptor has been cloned and expressed (Thibonnier et al., Journal of Biological Chemistry, 269, 3304-3310 (1994)). The nucleotide sequence has been deposited in the EMBL Databank under accession number Z11690.
The hV1a cell line was grown in alpha-MEM (alpha modification of Minimum essential medium Eagle, Sigma, St. Louis, Mo., USA) with 10% fetal bovine serum and 250 μg/ml G418 (Gibco, Grand Island, N.Y., USA). To prepare membranes, hV1a cells were grown to confluency in 20 roller bottles. Cells were dissociated with enzyme-free cell dissociation medium (Specialty Media, Lavallette, N.J., USA) and centrifuged at 2500 rpm for 10 minutes. The pellet was resuspended in 40 mL of Tris-HCl (tris[hydroxymethyl]aminomethane hydrochloride) buffer (50 mM, pH 7.4) and homogenized for 1 minute with a Tekmar Tissumizer (Cincinnatti, Ohio USA). The suspension was centrifuged at 40,000×g for 10 minutes. The pellet was resuspended and centrifuged as above. The final pellet was suspended in 80 mL of Tris 7.4 buffer and stored in 4 mL aliquots at −80° C. For assay, aliquots were resuspended in assay buffer and diluted to 125 μg protein per mL. Protein concentration was determined by BCA assay (Pierce, Rockford, Ill., USA).
Assay buffer was prepared by adjusting the pH of a solution of 50 mMol HEPES (N-2-Hydroxyethylpiperazine-N′-2-ethanesulfonic acid, Sigma, St. Louis, Mo., USA), 5 mMol MgCl2, and 1 mMol dithiothreitol pH 7.4 with NaOH, after which 40 μg/mL bacitracin and 10 μg/mL aprotinin were added. The radioligand for binding assays was [^3H]PMP-AVP (Manning vasopressin antagonist, 56 Ci/mMol, DuPont NEN, Boston, MA, USA). The order of additions was 195 μL assay buffer, 200 μL hV1a membranes (25 μg protein) in assay buffer, 5 μL of test agent in dimethylsulfoxide (DMSO) or DMSO alone, and 100 μL [^3H]PMP-AVP in assay buffer (final concentration 0.2 nM). Incubations were for one hour at room temperature. […] The filters were washed with ice-cold 50 mM Tris-HCl (pH 7.7 at 25° C.) and the filter circles were placed in scintillation vials, to which were then added 5 mL Ready Protein Plus scintillation fluid, and counted in a liquid scintillation counter. […] IC50 values were calculated by nonlinear least-squares curve-fitting to a 4-parameter logistic model.
The term IC50 denotes the concentration needed to halve the response being measured. As to `COC(=O)C(N1C(=O)[C@H](N2C(=O)OC[C@H]2c2ccccc2)[C@@H]1C=Cc1ccco1)C(O)(C(=O)c1ccccc1)c1ccccc1` (mixture of isomers) [Example 39, Methyl 2-(R,S)-[1-hydroxy-1,2-diphenyl-2-oxo-ethyl]-2-[3(R)-(4(R)-phenyloxazolidin-2-on-3-yl)-4(S)-(1-(fur-2-yl)-ethylen-2-yl)-azetidin-2-on-1-yl]acetate], the IC50 amounted to 13 nM.

As for `CC(C)(C)C(=O)C(C(=O)OCc1cccc(Cl)c1)N1C(=O)C(N2C(=O)OCC2c2ccccc2)C1C=Cc1ccccc1` (mixture of isomers) [Example 46, 3-Chlorobenzyl 2(R,S)-[2,2-dimethylpropanoyl]-2-[3(S)-(4(S)-phenyloxazolidin-2-on-3-yl)-4(R)-(2-styryl)-azetidin-2-on-1-yl]acetate], the IC50 was found to be 11 nM.

As to `CC(C)(C)OC(=O)C(C(=O)Cc1cccc(C(F)(F)F)c1)N1C(=O)C(N2C(=O)OCC2c2ccccc2)C1C=Cc1ccccc1` (mixture of isomers) [Example 50, tert-Butyl 2(R,S)-[3-(trifluoro)phenylacetyl]-2-[3(S)-(4(S)-phenyloxazolidin-2-on-3-yl)-4(R)-(2-styryl)-azetidin-2-on-1-yl]acetate], the 50% inhibitory concentration (IC50) is 64 nM.

In the case of `CC(C)(C)C[C@@H](C(=O)OCc1ccccc1)N1C(=O)[C@H](N2C(=O)OC[C@H]2c2ccccc2)[C@@H]1C=Cc1ccco1` [Example 27, Benzyl 2(S)-(2,2-dimethyl)propyl-2-[3(R)-(4(R)-phenyloxazolidin-2-on-3-yl)-4(S)-(1-(fur-2-yl)-ethylen-2-yl)-azetidin-2-on-1-yl]acetate], the IC50 was found to be 28 nM.

On to `CCC1(C(C(=O)NCc2ccccc2)N2C(=O)C(N3C(=O)OCC3c3ccccc3)C2C=Cc2ccccc2)OCCO1` [Example 31, N-[benzyl]-2-[(1,1-ethyleneketal)propionyl]-2-[3(S)-(4(S)-phenyloxazolidin-2-on-3-yl)-4(R)-(2-styryl)-azetidin-2-on-1-yl]acetamide], for which the IC50 was determined as 23 nM.

For `CC(C)C[C@@H](C(=O)N1CCC(CCN2CCCCC2)CC1)N1C(=O)[C@@H](N2C(=O)OC[C@@H]2c2ccccc2)[C@H]1/C=C/c1ccccc1` [Example 34, 1-{2-(S)-isobutyl-2-[3(S)-(4(S)-phenyloxazolidin-2-on-3-yl)-4(R)-(2-styryl)-azetidin-2-on-1-yl]acetyl}-4-(2-(piperidin-1-yl)-ethyl)piperidine], the IC50 worked out at 78 nM.

For `CC(C)(C)C(O)C(C(=O)N1CCC(CCN2CCCCC2)CC1)N1C(=O)[C@@H](N2C(=O)OC[C@@H]2c2ccccc2)[C@H]1C=Cc1ccccc1` (stereo partly drawn) [Example 40, 1-{2-(R,S)-[1-hydroxy-2,2-dimethylpropyl]-2-[3(S)-(4(S)-phenyloxazolidin-2-on-3-yl)-4(R)-(2-styryl)-azetidin-2-on-1-yl]acetyl}-4-(2-(piperidin-1-yl)-ethyl)piperidine], the IC50 came out at 40 nM.

`CC(C)(C)C(=O)[C@H](C(=O)OCc1ccccc1)N1C(=O)[C@@H](N2C(=O)OC[C@@H]2c2ccccc2)[C@H]1C=Cc1ccco1` [Example 54A, Benzyl 2-(R)-[2,2-dimethylpropanoyl]-2-[3(S)-(4(S)-phenyloxazolidin-2-on-3-yl)-4(R)-(1-(fur-2-yl)ethylen-2-yl)-azetidin-2-on-1-yl]acetate]: the IC50 turned out to be 2 nM.

For `CC(C)(C)C(=O)[C@@H](C(=O)OCc1ccccc1)N1C(=O)[C@@H](N2C(=O)OC[C@@H]2c2ccccc2)[C@H]1C=Cc1ccco1` [Example 54B, Benzyl 2-(S)-[2,2-dimethylpropanoyl]-2-[3(S)-(4(S)-phenyloxazolidin-2-on-3-yl)-4(R)-(1-(fur-2-yl)ethylen-2-yl)-azetidin-2-on-1-yl]acetate], the IC50 is 9 nM.

Take `CCC1(C(C(=O)NCc2cccc(C(F)(F)F)c2)N2C(=O)[C@@H](N3C(=O)OC[C@@H]3c3ccccc3)[C@H]2/C=C/c2ccccc2)OCCO1` (stereo partly drawn) [Example 67]: the IC50 was 5 nM.

Take `CCC1(C(C(=O)N2CCN(CCc3ccccc3)CC2)N2C(=O)[C@@H](N3C(=O)OC[C@@H]3c3ccccc3)[C@H]2/C=C/c2ccccc2)OCCO1` (stereo partly drawn) [Example 78]: the IC50 came out at 16 nM.

With `CC(C)C[C@@H](C(=O)NCCCN1CCN(C)CC1)N1C(=O)[C@@H](N2C(=O)OC[C@@H]2c2ccccc2)[C@H]1/C=C/c1ccccc1` [Example 97], the IC50 was found to be 42 nM.

For the molecule `CC(C)C[C@@H](C(=O)NCc1cccc(Cl)c1)N1C(=O)[C@@H](N2C(=O)OC[C@@H]2c2ccccc2)[C@H]1/C=C/c1ccccc1` [Example 109], the IC50 turned out to be 40 nM.

As for `Cc1cccc(CNC(=O)[C@H](CC(C)C)N2C(=O)[C@@H](N3C(=O)OC[C@@H]3c3ccccc3)[C@H]2/C=C/c2ccccc2)c1` [Example 112], the IC50 came out at 25 nM.

Consider `CC(C)C[C@@H](C(=O)NCc1cccc(C(F)(F)F)c1)N1C(=O)[C@@H](N2C(=O)OC[C@@H]2c2ccccc2)[C@H]1/C=C/c1ccccc1` [Example 113], for which the IC50 was 41 nM.

A further data set deals with golden hamsters. The experiment in a line: vasopressin-induced flank marking in golden hamsters. The following applies: microinjection into anterior hypothalamus as cocktail with 1 μM vasopressin; scored 10 minutes. Type of data set: in vivo, golden hamsters (Mesocricetus auratus). As to the method:
In golden hamsters, a particular stereotypy, flank marking behavior, can be induced by micro-injections of vasopressin ([…], 1-100 μM) into the anterior hypothalamus (Ferris, et al., Science, 224, 521-523 (1984); Albers and Ferris, Regulatory Peptides, 12, 257-260 (1985); Ferris et al., European Journal of Pharmacology, 154, 153-159 (1988)). Following the releasing stimulus, the behavior is initiated by grooming, licking and combing of the large sebaceous glands on the dorsolateral flanks. Bouts of flank gland grooming may be so intense that the flank region is left matted and soaked in saliva. After grooming, the hamsters display flank marking behavior, a type of scent marking involved in olfactory communication (Johnston, Physio. Behav., 51, 437-448 (1985); Ferris, et al., Physio. Behav., 40, 661-664 (1987)), by arching the back and rubbing the flank glands vigorously against any vertical surface.
All animals were adult male golden hamsters (Mesocricetus auratus) weighing approximately 160 gm. The animals underwent stereotaxic surgery, and were allowed to recover before behavioral testing. […]
The hamsters were microinjected with 1 μM vasopressin in a volume of […]. […] Animals were scored for flank marking for a period of 10 minutes in a clean cage.
For `CC(C)(C)C(=O)C(C(=O)OCc1ccccc1)N1C(=O)C(N2C(=O)OCC2c2ccccc2)C1C=Cc1ccccc1` (mixture of isomers) [Example 42, Benzyl 2-(R,S)-[2,2-dimethylpropanoyl]-2-[3(S)-(4(S)-phenyloxazolidin-2-on-3-yl)-4(R)-(2-styryl)azetidin-2-on-1-yl]acetate], the “inhibition of vasopressin-induced flank marking” value is reported as “inhibited vasopressin-induced flank marking in a dose dependent manner”.

Source of the values: US6521611B2 (Eli Lilly and Company, priority 1996, dated 2003).
